In brackets after ≈: the same amount, converted by molar mass. Activity calls are given as the source filed them. The calls are words filed in the database; no cut-off is given here.
Test system: Staphylococcus aureus
Test: Antimicrobial activity against Staphylococcus aureus
Type: functional

MIC | SMILES | Activity
– | COC(=O)[C@]1(C)CCC[C@@]2(C)[C@@H]3CC[C@H]4C[C@@]3(CC[C@@H]21)[C@H]1O[C@@]41C | inactive
– | COC(=O)[C@]1(C)CCC[C@@]2(C)[C@@H]3C[C@H](OC(C)=O)[C@H]4C[C@]3(C=C4C)CC[C@@H]21 | inactive
– | C[C@@]1(CO)CCC[C@]2(C)[C@@H]1CC[C@@]13C[C@H](CC[C@@H]21)[C@]1(C)O[C@H]31 | inactive
31.2 µg/mL (≈ 98.1 µM) | C[C@@]12CCC[C@@](C)(C(=O)O)[C@H]1CC[C@@]13C[C@H](CC[C@@H]21)[C@]1(C)O[C@H]31 | –
– | C=C1C[C@@]23CC[C@H]4[C@@](C)(CCC[C@@]4(C)C(=O)OC)[C@@H]2C[C@H](OC(C)=O)[C@H]1C3 | inactive
– | C=C/C(C)=C\C[C@@H]1C(=C)CC[C@@H]2C(C)(C)C[C@@H](OC(C)=O)C[C@@]12C | inactive
– | C=C/C(C)=C/C[C@H]1C(=C)CC[C@H]2C(C)(C)[C@@H](OC(C)=O)[C@H](O)C[C@]12C | inactive
